According to article PMC12420824, “Discovery of a selective alpha-kinase 1 inhibitor for the rare genetic disease ROSAH syndrome” (Nature Communications, 2025):

Key:
Assay in all cases: HotSpot kinase assay
Details in all cases: read-out: % Enzyme Activity (relative to DMSO control), 10 uM
MARK4 = MARK4 (Homo sapiens, UniProt Q96L34)
Description: (§1) Additionally, a 10-dose dilution series of staurosporine and other enzyme-appropriate compounds were included as positive control inhibitors.

PLK1 = PLK1 (Homo sapiens, UniProt P53350)
PASK = PASK (Homo sapiens, UniProt Q96RG2)
Description: as §1

LOK/STK10 = LOK/STK10 (Homo sapiens, UniProt O94804)
Description: as §1

CDK9/cyclin T1 = CDK9/cyclin T1 (Homo sapiens, UniProt P50750)
MAST3 = MAST3 (Homo sapiens, UniProt O60307)
Description: as §1

STK25/YSK1 = STK25/YSK1 (Homo sapiens, UniProt O00506)
Chain of STK25/YSK1 (O00506 whole entry): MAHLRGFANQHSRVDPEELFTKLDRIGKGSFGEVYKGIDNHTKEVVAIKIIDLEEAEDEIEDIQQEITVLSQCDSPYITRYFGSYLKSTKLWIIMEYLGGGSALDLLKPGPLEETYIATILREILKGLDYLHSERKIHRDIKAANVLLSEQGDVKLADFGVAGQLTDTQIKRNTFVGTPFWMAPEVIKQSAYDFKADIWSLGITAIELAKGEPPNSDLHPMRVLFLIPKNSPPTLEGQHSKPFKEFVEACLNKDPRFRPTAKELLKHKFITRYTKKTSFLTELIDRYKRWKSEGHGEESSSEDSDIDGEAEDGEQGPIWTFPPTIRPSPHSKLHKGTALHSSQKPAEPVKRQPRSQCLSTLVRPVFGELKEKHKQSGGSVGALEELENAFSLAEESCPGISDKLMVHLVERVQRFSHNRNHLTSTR
Description: as §1

GLK/MAP4K3 = GLK/MAP4K3 (Homo sapiens, UniProt Q8IVH8)
DNA-PK = DNA-PK (Homo sapiens, UniProt P78527)
Description: as §1

ALK2/ACVR1 = ALK2/ACVR1 (Homo sapiens, UniProt Q04771)
WEE1 = WEE1 (Homo sapiens, UniProt P30291)
Description: as §1

DDR2 = DDR2 (Homo sapiens, UniProt Q16832)
PDK1/PDHK1 = PDK1/PDHK1 (Homo sapiens, UniProt Q15118)
Chain of PDK1/PDHK1 (Q15118 29-436): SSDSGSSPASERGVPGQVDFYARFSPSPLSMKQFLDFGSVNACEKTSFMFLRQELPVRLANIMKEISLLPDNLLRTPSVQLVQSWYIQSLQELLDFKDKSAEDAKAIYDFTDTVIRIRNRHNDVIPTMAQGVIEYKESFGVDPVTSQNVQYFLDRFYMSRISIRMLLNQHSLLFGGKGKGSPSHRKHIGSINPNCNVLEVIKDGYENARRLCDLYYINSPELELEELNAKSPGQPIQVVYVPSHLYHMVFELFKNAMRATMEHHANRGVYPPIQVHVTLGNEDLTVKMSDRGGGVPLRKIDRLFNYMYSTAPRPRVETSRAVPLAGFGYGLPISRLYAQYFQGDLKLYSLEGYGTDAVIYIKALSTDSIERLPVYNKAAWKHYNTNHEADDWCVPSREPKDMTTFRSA

MUSK = MUSK (Homo sapiens, UniProt O15146)
Description: as §1

AMPK(A2/B2/G2) = AMPK(A2/B2/G2) (Homo sapiens, UniProt P54646)
Description: as §1

PRKX = PRKX (Homo sapiens, UniProt P51817)
Chain of PRKX (P51817 whole entry): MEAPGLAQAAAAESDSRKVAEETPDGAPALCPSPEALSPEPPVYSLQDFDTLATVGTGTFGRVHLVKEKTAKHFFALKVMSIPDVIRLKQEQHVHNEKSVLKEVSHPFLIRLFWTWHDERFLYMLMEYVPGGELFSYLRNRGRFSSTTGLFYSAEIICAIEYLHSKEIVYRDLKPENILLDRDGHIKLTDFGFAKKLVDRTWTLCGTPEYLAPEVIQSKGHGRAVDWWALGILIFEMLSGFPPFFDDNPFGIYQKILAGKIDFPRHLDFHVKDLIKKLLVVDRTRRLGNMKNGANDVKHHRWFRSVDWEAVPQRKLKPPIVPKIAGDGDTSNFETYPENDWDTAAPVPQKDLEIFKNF
Description: as §1

CTK/MATK = CTK/MATK (Homo sapiens, UniProt P42679)
Chain of CTK/MATK (P42679 whole entry): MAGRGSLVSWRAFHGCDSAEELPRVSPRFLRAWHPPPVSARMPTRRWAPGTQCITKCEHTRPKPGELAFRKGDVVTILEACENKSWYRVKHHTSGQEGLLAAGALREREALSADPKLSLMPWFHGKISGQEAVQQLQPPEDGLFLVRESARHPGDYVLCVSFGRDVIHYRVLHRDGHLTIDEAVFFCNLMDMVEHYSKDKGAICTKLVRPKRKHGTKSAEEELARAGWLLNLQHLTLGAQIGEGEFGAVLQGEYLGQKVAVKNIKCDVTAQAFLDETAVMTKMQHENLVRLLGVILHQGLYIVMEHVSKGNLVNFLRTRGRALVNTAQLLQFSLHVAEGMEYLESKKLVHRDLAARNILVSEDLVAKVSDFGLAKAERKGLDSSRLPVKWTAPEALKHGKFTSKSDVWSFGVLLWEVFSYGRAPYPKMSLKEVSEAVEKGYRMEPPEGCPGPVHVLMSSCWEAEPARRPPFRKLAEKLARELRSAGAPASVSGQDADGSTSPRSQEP
Description: as §1

ERN1/IRE1 = ERN1/IRE1 (Homo sapiens, UniProt O75460)
Description: as §1

LKB1 = LKB1 (Homo sapiens, UniProt Q15831)
Description: as §1

MRCKb/CDC42BPB = MRCKb/CDC42BPB (Homo sapiens, UniProt Q9Y5S2)
NIM1 = NIM1 (Homo sapiens, UniProt Q8IY84)
Description: as §1

CHK2 = CHK2 (Homo sapiens, UniProt O96017)
Chain of CHK2 (O96017 whole entry): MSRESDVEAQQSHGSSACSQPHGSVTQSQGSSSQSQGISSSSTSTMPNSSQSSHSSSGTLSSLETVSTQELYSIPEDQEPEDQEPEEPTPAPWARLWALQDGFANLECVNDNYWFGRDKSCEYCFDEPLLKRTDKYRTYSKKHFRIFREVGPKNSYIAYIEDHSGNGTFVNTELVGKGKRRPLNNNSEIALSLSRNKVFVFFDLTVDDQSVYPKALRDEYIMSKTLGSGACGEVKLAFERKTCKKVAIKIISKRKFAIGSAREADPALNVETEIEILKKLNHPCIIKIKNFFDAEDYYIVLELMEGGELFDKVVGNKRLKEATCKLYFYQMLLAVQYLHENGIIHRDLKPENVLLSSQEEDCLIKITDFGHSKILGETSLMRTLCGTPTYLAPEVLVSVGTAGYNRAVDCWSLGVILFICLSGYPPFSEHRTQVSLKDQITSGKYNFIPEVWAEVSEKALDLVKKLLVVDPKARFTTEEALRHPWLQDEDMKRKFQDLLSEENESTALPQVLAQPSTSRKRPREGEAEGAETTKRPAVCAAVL

SNARK/NUAK2 = SNARK/NUAK2 (Homo sapiens, UniProt Q9H093)
Description: as §1

SGK2 = SGK2 (Homo sapiens, UniProt Q9HBY8)
Chain of SGK2 (Q9HBY8 whole entry): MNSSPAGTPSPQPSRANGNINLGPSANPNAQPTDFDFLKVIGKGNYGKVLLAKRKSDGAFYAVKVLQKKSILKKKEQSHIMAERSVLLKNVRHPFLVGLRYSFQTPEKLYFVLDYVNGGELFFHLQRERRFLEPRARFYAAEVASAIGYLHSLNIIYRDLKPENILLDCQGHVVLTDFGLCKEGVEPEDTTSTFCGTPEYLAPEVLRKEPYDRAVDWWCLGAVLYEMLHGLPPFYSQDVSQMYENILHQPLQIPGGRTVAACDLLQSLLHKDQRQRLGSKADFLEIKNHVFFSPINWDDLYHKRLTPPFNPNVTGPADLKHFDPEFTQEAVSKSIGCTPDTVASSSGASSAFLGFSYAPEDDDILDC
Description: as §1

MASTL = MASTL (Homo sapiens, UniProt Q96GX5)
Description: as §1

PDGFRa = PDGFRa (Homo sapiens, UniProt P16234)
Description: as §1

LATS2 = LATS2 (Homo sapiens, UniProt Q9NRM7)
Description: as §1

FLT1/VEGFR1 = FLT1/VEGFR1 (Homo sapiens, UniProt P17948)
Chain of FLT1/VEGFR1 (P17948 27-1338): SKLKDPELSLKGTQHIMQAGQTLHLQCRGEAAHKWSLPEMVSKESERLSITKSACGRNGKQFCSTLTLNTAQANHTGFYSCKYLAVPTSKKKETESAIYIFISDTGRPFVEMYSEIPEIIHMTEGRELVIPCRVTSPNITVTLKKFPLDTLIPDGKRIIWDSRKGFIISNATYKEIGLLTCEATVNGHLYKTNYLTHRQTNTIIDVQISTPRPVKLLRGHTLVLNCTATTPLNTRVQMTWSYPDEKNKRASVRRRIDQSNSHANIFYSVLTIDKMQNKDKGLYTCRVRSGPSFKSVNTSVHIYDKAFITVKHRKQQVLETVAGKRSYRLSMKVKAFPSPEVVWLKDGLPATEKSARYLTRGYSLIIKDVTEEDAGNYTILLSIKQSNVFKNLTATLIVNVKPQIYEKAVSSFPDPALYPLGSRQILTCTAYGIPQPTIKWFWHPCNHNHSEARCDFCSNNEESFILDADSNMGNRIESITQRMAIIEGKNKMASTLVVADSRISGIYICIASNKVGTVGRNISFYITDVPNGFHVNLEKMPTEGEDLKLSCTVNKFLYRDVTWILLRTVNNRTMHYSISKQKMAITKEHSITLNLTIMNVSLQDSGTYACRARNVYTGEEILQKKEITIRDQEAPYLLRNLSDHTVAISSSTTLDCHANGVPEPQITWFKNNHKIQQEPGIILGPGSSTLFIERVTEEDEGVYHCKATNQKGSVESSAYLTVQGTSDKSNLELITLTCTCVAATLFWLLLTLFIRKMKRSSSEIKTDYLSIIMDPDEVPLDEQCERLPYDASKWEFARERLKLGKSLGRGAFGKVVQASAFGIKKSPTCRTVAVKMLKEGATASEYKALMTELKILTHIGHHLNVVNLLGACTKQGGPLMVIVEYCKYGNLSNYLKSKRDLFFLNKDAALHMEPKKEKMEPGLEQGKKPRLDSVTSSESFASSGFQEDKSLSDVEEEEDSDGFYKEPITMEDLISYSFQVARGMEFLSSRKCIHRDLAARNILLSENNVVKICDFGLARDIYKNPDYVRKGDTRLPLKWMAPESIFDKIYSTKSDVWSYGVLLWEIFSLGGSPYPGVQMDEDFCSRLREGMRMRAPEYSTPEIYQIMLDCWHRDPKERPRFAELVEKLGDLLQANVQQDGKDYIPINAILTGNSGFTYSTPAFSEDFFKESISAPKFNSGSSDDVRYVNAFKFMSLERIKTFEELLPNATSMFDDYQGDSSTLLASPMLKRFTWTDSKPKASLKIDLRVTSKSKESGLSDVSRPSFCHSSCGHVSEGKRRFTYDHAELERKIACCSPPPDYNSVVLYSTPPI
Description: as §1

CAMK1g = CAMK1g (Homo sapiens, UniProt Q96NX5)
Description: as §1

DAPK2 = DAPK2 (Homo sapiens, UniProt Q9UIK4)
Description: as §1

STK39/STLK3 = STK39/STLK3 (Homo sapiens, UniProt Q9UEW8)
Description: as §1

PKG2/PRKG2 = PKG2/PRKG2 (Homo sapiens, UniProt Q13237)
Chain of PKG2/PRKG2 (Q13237 whole entry): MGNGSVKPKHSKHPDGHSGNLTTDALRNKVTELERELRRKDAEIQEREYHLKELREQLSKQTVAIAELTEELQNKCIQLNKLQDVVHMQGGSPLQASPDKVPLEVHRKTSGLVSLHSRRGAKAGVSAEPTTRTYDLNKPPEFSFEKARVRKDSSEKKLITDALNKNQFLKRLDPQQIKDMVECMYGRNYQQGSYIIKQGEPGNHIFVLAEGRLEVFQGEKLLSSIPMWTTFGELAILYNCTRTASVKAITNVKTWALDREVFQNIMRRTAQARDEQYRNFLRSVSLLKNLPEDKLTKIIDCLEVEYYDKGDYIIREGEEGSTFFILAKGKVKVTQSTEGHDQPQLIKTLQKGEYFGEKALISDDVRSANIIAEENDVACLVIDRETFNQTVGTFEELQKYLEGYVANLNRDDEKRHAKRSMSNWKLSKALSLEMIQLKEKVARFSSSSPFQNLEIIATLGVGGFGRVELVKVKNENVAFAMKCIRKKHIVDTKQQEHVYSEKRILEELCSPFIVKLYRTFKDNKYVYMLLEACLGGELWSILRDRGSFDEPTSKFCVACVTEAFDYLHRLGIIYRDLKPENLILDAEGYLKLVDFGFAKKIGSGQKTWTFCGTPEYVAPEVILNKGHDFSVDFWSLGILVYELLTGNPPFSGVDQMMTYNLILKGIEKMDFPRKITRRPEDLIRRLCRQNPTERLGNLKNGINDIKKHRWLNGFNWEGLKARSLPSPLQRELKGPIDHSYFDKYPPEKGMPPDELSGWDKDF
Description: as §1

CAMK4 = CAMK4 (Homo sapiens, UniProt Q16566)
Description: as §1

MAK = MAK (Homo sapiens, UniProt P20794)
Description: as §1

P38b/MAPK11 = P38b/MAPK11 (Homo sapiens, UniProt Q15759)
c-MER = c-MER (Homo sapiens, UniProt Q12866)
Description: as §1

CAMK1d = CAMK1d (Homo sapiens, UniProt Q8IU85)
Description: as §1

TSSK3/STK22C = TSSK3/STK22C (Homo sapiens, UniProt Q96PN8)
Chain of TSSK3/STK22C (Q96PN8 whole entry): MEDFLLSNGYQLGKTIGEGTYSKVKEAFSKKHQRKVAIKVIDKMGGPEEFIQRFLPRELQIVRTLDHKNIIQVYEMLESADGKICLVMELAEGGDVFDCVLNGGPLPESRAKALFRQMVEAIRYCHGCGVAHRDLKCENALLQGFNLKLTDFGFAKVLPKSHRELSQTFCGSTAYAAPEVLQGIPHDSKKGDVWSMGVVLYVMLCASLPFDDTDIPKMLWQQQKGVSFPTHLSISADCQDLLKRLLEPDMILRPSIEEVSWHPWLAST
Description: as §1

TRPM7/CHAK1 = TRPM7/CHAK1 (Homo sapiens, UniProt Q96QT4)

C#C[C@@](C)(c1ccc(Cl)cc1)c1csc(NC(=O)c2c(F)cc(N3CCNCC3)cc2F)n1 (stereo in doubt) [DF-003]
remaining activity at 10 µM (MARK4): 110% | remaining activity at 10 µM (PLK1): 114% | remaining activity at 10 µM (PASK): 56.5% | remaining activity at 10 µM (LOK/STK10): 62.4% | remaining activity at 10 µM (CDK9/cyclin T1): 116% | remaining activity at 10 µM (MAST3): 82.3% | remaining activity at 10 µM (STK25/YSK1): 82.9% | remaining activity at 10 µM (GLK/MAP4K3): 77.3% | remaining activity at 10 µM (DNA-PK): 85.3% | remaining activity at 10 µM (ALK2/ACVR1): 92.7% | remaining activity at 10 µM (WEE1): 125% | remaining activity at 10 µM (DDR2): 84.6% | remaining activity at 10 µM (PDK1/PDHK1): 101% | remaining activity at 10 µM (MUSK): 105% | remaining activity at 10 µM (AMPK(A2/B2/G2)): 83% | remaining activity at 10 µM (PRKX): 87.4% | remaining activity at 10 µM (CTK/MATK): 80.2% | remaining activity at 10 µM (ERN1/IRE1): 93.8% | remaining activity at 10 µM (LKB1): 86.5% | remaining activity at 10 µM (MRCKb/CDC42BPB): 94.7% | remaining activity at 10 µM (NIM1): 52.2% | remaining activity at 10 µM (CHK2): 89.9% | remaining activity at 10 µM (SNARK/NUAK2): 124% | remaining activity at 10 µM (SGK2): 77.6% | remaining activity at 10 µM (MASTL): 90.6% | remaining activity at 10 µM (PDGFRa): 87.6% | remaining activity at 10 µM (LATS2): 45.3% | remaining activity at 10 µM (FLT1/VEGFR1): 79.2% | remaining activity at 10 µM (CAMK1g): 56.6% | remaining activity at 10 µM (DAPK2): 73.9% | remaining activity at 10 µM (STK39/STLK3): 98.7% | remaining activity at 10 µM (PKG2/PRKG2): 105% | remaining activity at 10 µM (CAMK4): 34.5% | remaining activity at 10 µM (MAK): 100% | remaining activity at 10 µM (P38b/MAPK11): 95.4% | remaining activity at 10 µM (c-MER): 89.5% | remaining activity at 10 µM (CAMK1d): 39.1% | remaining activity at 10 µM (TSSK3/STK22C): 53.7% | remaining activity at 10 µM (TRPM7/CHAK1): 104%
